{"source": "ChEMBL document CHEMBL4316589", "about": "“Attachment of a 5-nitrofuroyl moiety to spirocyclic piperidines produces non-toxic nitrofurans that are efficacious in vitro against multidrug-resistant Mycobacterium tuberculosis” (Eur J Med Chem, 2019)", "assay_type_in_all_cases": "functional", "key": {"[1]": {"test_system": "Mycobacterium tuberculosis", "assay": "Antimycobacterial activity against patient-derived multidrug-resistant Mycobacterium tuberculosis 7106 measured after 7 days by resazurin dye-based assay", "details": "Mycobacterium tuberculosis, 7106, 168 h"}, "[2]": {"test_system": "Mycobacterium tuberculosis", "assay": "Antimycobacterial activity against patient-derived multidrug-resistant Mycobacterium tuberculosis 2712 measured after 7 days by resazurin dye-based assay", "details": "Mycobacterium tuberculosis, 2712, 168 h"}, "[3]": {"test_system": "Mycobacterium tuberculosis", "assay": "Antimycobacterial activity against patient-derived multidrug-resistant Mycobacterium tuberculosis 5023 measured after 7 days by resazurin dye-based assay", "details": "Mycobacterium tuberculosis, 5023, 168 h"}}, "data": [{"smiles": "O=C(c1ccc([N+](=O)[O-])o1)N1CCC2(CC1)CC(Cc1nc(C3CC3)no1)CCO2", "note": "(stereo unspecified)", "values": [{"measurement": "MIC", "setting": "[1]", "result": 6.2, "unit": "mg/L"}, {"measurement": "MIC", "setting": "[2]", "result": 3.1, "unit": "mg/L"}, {"measurement": "MIC", "setting": "[3]", "result": 12.5, "unit": "mg/L"}]}, {"smiles": "O=C(c1ccc([N+](=O)[O-])o1)N1CCC2(CCCCO2)CC1", "values": [{"measurement": "MIC", "setting": "[1]", "result": 25, "unit": "mg/L"}, {"measurement": "MIC", "setting": "[2]", "result": 6.2, "unit": "mg/L"}, {"measurement": "MIC", "setting": "[3]", "result": 25, "unit": "mg/L"}]}, {"smiles": "COc1ccc(CC2CCOC3(CCN(C(=O)c4ccc([N+](=O)[O-])o4)CC3)C2)cc1", "note": "(stereo unspecified)", "values": [{"measurement": "MIC", "setting": "[1]", "result": 3.1, "unit": "mg/L"}, {"measurement": "MIC", "setting": "[2]", "result": 6.2, "unit": "mg/L"}, {"measurement": "MIC", "setting": "[3]", "result": 3.1, "unit": "mg/L"}]}, {"smiles": "Cc1ccc(CC2CCOC3(CCN(C(=O)c4ccc([N+](=O)[O-])o4)CC3)C2)cc1", "note": "(stereo unspecified)", "values": [{"measurement": "MIC", "setting": "[1]", "result": 100, "unit": "mg/L"}, {"measurement": "MIC", "setting": "[2]", "result": 100, "unit": "mg/L"}, {"measurement": "MIC", "setting": "[3]", "result": 3.1, "unit": "mg/L"}]}, {"smiles": "O=C(c1ccc([N+](=O)[O-])o1)N1CCC2(CC1)CC(Cc1nc(-c3cccnc3)no1)CCO2", "note": "(stereo unspecified)", "values": [{"measurement": "MIC", "setting": "[1]", "result": 6.2, "unit": "mg/L"}, {"measurement": "MIC", "setting": "[2]", "result": 1.6, "unit": "mg/L"}, {"measurement": "MIC", "setting": "[3]", "result": 3.1, "unit": "mg/L"}]}, {"smiles": "COCCc1noc(CC2CCOC3(CCN(C(=O)c4ccc([N+](=O)[O-])o4)CC3)C2)n1", "note": "(stereo unspecified)", "values": [{"measurement": "MIC", "setting": "[1]", "result": 25, "unit": "mg/L"}, {"measurement": "MIC", "setting": "[2]", "result": 12.5, "unit": "mg/L"}, {"measurement": "MIC", "setting": "[3]", "result": 12.5, "unit": "mg/L"}]}, {"smiles": "O=C(c1ccc([N+](=O)[O-])o1)N1CCC2(CC1)CC(OCc1ccc(F)cc1)CCO2", "note": "(stereo unspecified)", "values": [{"measurement": "MIC", "setting": "[1]", "result": 6.2, "unit": "mg/L"}, {"measurement": "MIC", "setting": "[2]", "result": 25, "unit": "mg/L"}, {"measurement": "MIC", "setting": "[3]", "result": 6.2, "unit": "mg/L"}]}]}
